Test system: MKP-1
Assay: In vitro effective dose study (Western blots for MKP-1 on HeLa cells)
Assay type: cell-based
Settings: HeLa cells incubated with varying concentration; extrapolated

## CC(=O)OCC(=O)[C@@]1(O)CC[C@H]2[C@@H]3CCC4=CC(=O)C=C[C@]4(C)[C@H]3[C@@H](O)C[C@@]21C [Prednisolone-21-acetate]
  in vitro effective dose: 5-10 ppm
